Data set [1] concerns A549. Put plainly: Induction of apoptosis in human A549 cells assessed as early apoptotic cells at 10 uM measured after 24 hrs by annexin-V/PI staining based flow cytometry analysis (reference value: 1.56%). It counts as functional. For orientation: Flow cytometry measures light scatter and fluorescence of single cells or particles in a stream.
The subject of data set [2] is A549. Nature of the data set: Induction of apoptosis in human A549 cells assessed as viable cells at 10 uM measured after 24 hrs by annexin-V/PI staining based flow cytometry analysis (reference value: 97.0%). It is filed as functional. The settings on record: read-out: Activity.
The subject of data set [3] is A549. Nature of the data set: Induction of apoptosis in human A549 cells assessed as necrotic cells at 10 uM measured after 24 hrs by annexin-V/PI staining based flow cytometry analysis (reference value: 0.13%). It counts as functional.
Data set [4] has as its system A549. Nature of the data set: Induction of apoptosis in human A549 cells assessed as necrotic cells at 5 uM measured after 24 hrs by annexin-V/PI staining based flow cytometry analysis (reference value: 0.13%). It is filed as functional.
Data set [5] is described as follows: Bioavailability in Sprague-Dawley rat at 10 mg/kg, ip incubated for 24 hrs by LC-MS/MS analysis. The following applies: in vivo. It is filed as ADME, organism-based.
Data set [6] concerns A549. Put plainly: Induction of apoptosis in human A549 cells assessed as early apoptotic cells at 5 uM measured after 24 hrs by annexin-V/PI staining based flow cytometry analysis (reference value: 1.56%). It is filed as functional.
Data set [7] has as its system A549. Put plainly: Induction of apoptosis in human A549 cells assessed as late apoptotic cells at 10 uM measured after 24 hrs by annexin-V/PI staining based flow cytometry analysis (reference value: 1.34%). It counts as functional.
The subject of data set [8] is A549. Nature of the data set: Induction of apoptosis in human A549 cells assessed as viable cells at 5 uM measured after 24 hrs by annexin-V/PI staining based flow cytometry analysis (reference value: 97.0%). It is filed as functional. The following applies: read-out: Activity.
For data set [9], the system named is A549. Put plainly: Induction of apoptosis in human A549 cells assessed as late apoptotic cells at 5 uM measured after 24 hrs by annexin-V/PI staining based flow cytometry analysis (reference value: 1.34%). It is filed as functional.
Data set [10] deals with A549. Nature of the data set: Induction of oxidative stress in human A549 cells assessed as upregulation of ROS production incubated for 24 hrs by DCFH-DA staining based flow cytometry analysis. It is filed as functional, cell-based. The settings on record: dose 5-10 µM.
Data set [11] in a line: Apparent volume of distribution with respect to the bioavailability in Sprague-Dawley rat at 10 mg/kg, ip incubated for 24 hrs by LC-MS/MS analysis. It counts as ADME, organism-based. The following applies: in vivo, read-out: Vc/F.
The target of data set [12] is T1, Sodium-coupled neutral amino acid symporter 1 (Homo sapiens) (UniProt Q9H2H9).
T1 sequence (whole entry): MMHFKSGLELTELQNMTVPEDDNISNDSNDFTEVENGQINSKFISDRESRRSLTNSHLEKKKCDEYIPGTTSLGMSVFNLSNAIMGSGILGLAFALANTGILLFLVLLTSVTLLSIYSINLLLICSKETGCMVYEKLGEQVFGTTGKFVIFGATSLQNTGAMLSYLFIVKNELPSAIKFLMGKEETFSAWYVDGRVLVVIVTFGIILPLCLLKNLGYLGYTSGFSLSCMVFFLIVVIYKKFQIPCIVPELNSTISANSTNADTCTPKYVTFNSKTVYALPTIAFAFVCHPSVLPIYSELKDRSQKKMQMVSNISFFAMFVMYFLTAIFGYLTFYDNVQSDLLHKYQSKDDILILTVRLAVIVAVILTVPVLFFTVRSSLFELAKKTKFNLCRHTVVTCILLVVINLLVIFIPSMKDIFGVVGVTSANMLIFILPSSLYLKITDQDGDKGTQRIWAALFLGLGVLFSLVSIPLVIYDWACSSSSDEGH
Nature of the data set: Inhibition of SNAT1 (unknown origin) overexpressed in human A549 cells assessed as reduction in [13C]-Gln uptake preincubated for 5 mins followed by substrate addition and measured after 15 mins. The following applies: time 20.0 min. It is filed as cell-based.

Activity calls are given as the source filed them. The rule behind the calls is not given here.

The source of these data is ChEMBL document CHEMBL5537180, “Discovery of Novel Aminobutanoic Acid-Based ASCT2 Inhibitors for the Treatment of Non-Small-Cell Lung Cancer” (J Med Chem, 2024).

The bioavailability is the share of a dose that reaches the circulation, judged against a reference dose that is usually intravenous. A low value points to poor availability.

For the compound `N[C@@H](CCN(Cc1ccccc1OCC#Cc1ccc(Cl)cc1)Cc1ccccc1OCC#Cc1ccc(Cl)cc1)C(=O)O`, the Activity in [1] worked out at 6.93%; in data set [3] it was 1.4%; in data set [4], 0.79%; in data set [6] it was 2.47%; in data set [7], 7.29%; in data set [9], 6.44%. Moreover, the Activity entry in data set [10] is “Dose-Dependent Effect”. The viability at 10 µM in [2] was found to be 84.4%. In data set [5], this compound returned a bioavailability of 77%. In addition, the viability at 5 µM in data set [8] is 90.3%. In [11], the Vd/F stood at 49.5 L/kg. For the same compound, the inhibition entry in data set [12] is “Active”.

On to `CC(C)(C)c1ccc(OCC#Cc2ccccc2)c(CN(CC[C@H](N)C(=O)O)Cc2cc(C(C)(C)C)ccc2OCC#Cc2ccccc2)c1`, for which, in data set [10], the Activity entry was “Dose-Dependent Effect”. The Vd/F in [11] amounted to 20 L/kg.
